Tested on: EGFR, HER2, HER3, and MET
Assay: Western blot of receptor tyrosine kinases in H1975 and BT-474 cells
Format: cell-based
Conditions: H1975 NSCLC cells and BT-474 breast cancer cells; 16 h
Experimental: Cell extracts were prepared in the presence of SDS and 2-mercaptoethanol and resolved in polyacrylamide gels. Proteins were transferred to nitrocellulose filter and blotting was done using standard procedures with blocking solutions (Li-Cor Bioscience) containing the indicated primary antibody. Primary antibodies against p-EGFR, EGFR, p-HER2, HER2, p-HER3, HER3, p-MET, MET, p-bRaf, p-cRaf, pMEK, MEK, p-ERK, ERK and tubulin were purchased from Cell Signaling Technology. Secondary antibody conjugated with IRdye 680, 800CW were used and the signal was detected with Li-Cor Odyssey Imager.

COc1ccc(-c2nc(N3CCOCC3)c3sc(CN(C)c4ncc(C(=O)NO)cn4)cc3n2)cn1 [Compound 1, N-hydroxy-2-(((2-(6-methoxypyridin-3-yl)-4-morpholinothieno[3,2-d]pyrimidin-6-yl)methyl)(methyl)amino)pyrimidine-5-carboxamide]
Levels of phosphorylated and total EGFR, HER2, HER3, and MET: reduce the levels of phosphorylated and total receptor tyrosine kinases EGFR, HER2, HER3, and MET

Reference: US11654136B2, “Phosphoinositide 3-kinase inhibitor with a zinc binding moiety” (Curis, Inc., priority 2011, dated 2023)
